Reference: publication PMC6481345, “A novel anti-melanoma SRC-family kinase inhibitor” (Oncotarget, 2019)

Experiments:
[1] = tested on: pERK T202/Y204; experiment: Western blot, phospho-MEK and phospho-ERK; type: cell-based, human; details: melanoma cells; 0.5 µM or 1 µM, 2-72 hours
Description: We used standard techniques to identify changes in intracellular signaling in response to various treatments. Briefly, melanoma cells were incubated with test compounds, using DMSO as a control, collected by scraping on ice, and lysed in RIPA buffer supplemented with protease and phosphatase inhibitors (MA #78428, and #78425, respectively, Thermo Fisher Scientific, Waltham, MA). Protein concentrations were measured with the BioRad kit (Bio-Rad Laboratories, Hercules, CA), SDS sample buffer was added, extracts were heated at 95°C, sonicated and centrifuged. Cell extracts (20 µg/lane) were fractionated in 3%–8% or 4–12 % tris-acetate gel (NP0006, NuPAGE Life Technologies). We probed with the following primary antibodies: phospho-SRC Tyr416 (CST #2101S), pSRC Tyr527 (#2105), SRC (#2108), pPI3K p85 Y458/p55 Y199 (#4228), LYN (C13F9, #2796), FYN (#4023), phospho-MEK1/2 pSer217/221 (#9121), MEK1/2, phospho-ERK2 pThr202/Tyr204 (#9101), ERK1/2 (#9107), phospho-p38 kinase T180/Y182 (#9216), p38 kinase (#9212), PP2A (#2259), pSHP2 Y542 (#3751), SHP2 (D50F2, #3397), ERBB2 (D8F12 XP(R), #4290), phospho-ERBB2 Y1196 (D66B7 #6942), MYC (D84C12, #5605); GAPDH (14C10, #2118), all from Cell Signaling Technology, Beverly, MA; phospho-PP2A Y307 (AF3989), and MITF (clone D5, #AF5769) from R&D Systems, Inc., Minneapolis, MN; p27KIP1 (#10241) and YES (#610375) from BD Biosciences, San Jose, CA; Cyclin D1 (#04-221) and β-actin (mouse mAb A5316) from MilliporeSigma, St. Louis, MO; PI3K Antibody (p85 alpha, NSJ R30480) from Bioreagents, 9921 Carmel Mountain Rd #352, San Diego, CA. All antibodies were used at the concentrations recommended by the manufacturers.

[2] = target: native kinases in YUSIV and YUSIK lysates; experiment: KiNativ in situ kinase profiling (summary over kinases); type: binding, human; details: mTOR, EGFR, LCK and MEK1; read-out: IC50, range over kinases
Description: (§1) The effect of SAB298 on a panel of 36 recombinant kinases, was screed with the radioisotope filter binding assay employing 10 concentrations of the compound with 10 µM ATP (Reaction Biology Corporation, Malvern, PA). In addition, we tested the endogenous kinome response to SAB298 (0.05 µM, 0.5 µM and 5 µM) in lysates from two melanoma cell lines (YUSIV and YUSIK) employing the KiNativ® platform (ActivX Biosciences Inc., La Jolla, CA). KiNativ® is a robust, high performance mass spectrometry (LC-MS^2) assay that uses biotinylated probes to measure relevant changes in the affinity to the ATP-binding sites of 205 native kinases as a function of cellular context. We also validated SAB298 effect on the activity of SRC-family kinases by probing for phosphorylated Y416, the marker of activated SFKs, with anti-IEDNEpYTAR antibodies (also known as Y419, #2101, Cell Signaling Technology, Beverly, MA). In some cases the cells were incubated overnight with 20 µM proteasome inhibitor MG-132 (CAS 133407-82-6, Millipore Sigma, Burlington, MA) to rescue degradation.

[3] = target: LCK (Homo sapiens, UniProt P06239); experiment: KiNativ in situ kinase profiling in melanoma cell lysates; type: binding; set-up: we tested the endogenous kinome response to SAB298; host or cells: YUSIV or YUSIK melanoma cell lysate; details: LCK in YUSIV lysate; 3-point dose response
Description: as §1

[4] = tested on: melanoma cells; experiment: Apoptosis (annexin V staining and caspase activity); type: cell-based, human; details: 0.5 µM and 1 µM, 24 hrs
Description: The rate of apoptosis was measured using the Dead Cell Apoptosis Kit with Alexa Fluor® 488 annexin V and propidium iodide (Invitrogen, V13241). Phosphatidylserine was visualized by flow cytometry following the manufacturer’s instructions. The assay was done in response to SAB298 (0.5 µM and 1 µM, 24 hrs), compared to DMSO (negative control) or camptothecin (10 µM), as a positive control. In addition, we used the 96-well colorimetric Caspase 3 Assay kit (Millipore Sigma) to measure caspase activity in response to increasing concentrations of SAB298, and western blotting for apoptotic markers, such as cleaved PARP. […]
www.oncotarget.com Oncotarget, Supplementary Materials
A novel anti-melanoma src-family kinase inhibitor
Supplementary Figure 1: Apoptosis in response to SAB298. […]
melanoma cells treated for 24 hrs with SAB298 (0.5 and 1 µM). (C) A bar plot showing the differential levels of annexin positive cells in response to SAB298. (D) Caspase activity in response to SAB298 of four different cell lines (YUSIV, YUSIK, YUGASP and YUSEEP).
(1 picture or pasted object on this page, not shown here)

[5] = target: LYN (Homo sapiens, UniProt P07948); experiment: KiNativ in situ kinase profiling in melanoma cell lysates; type: binding; set-up: the endogenous kinome response to SAB298 (0.05 µM, 0.5 µM and 5 µM) in lysates from two melanoma cell lines; host or cells: YUSIV and YUSIK melanoma cell lysates; details: 3-point dose response
Description: as §1

[6] = target: SRC (Homo sapiens, UniProt P12931); experiment: as above; type: binding; set-up: the endogenous kinome response to SAB298 (0.05 µM, 0.5 µM and 5 µM) in lysates from two melanoma cell lines; host or cells: YUSIV and YUSIK melanoma cell lysates
Description: as §1

[7] = target: ABL2 (Homo sapiens, UniProt P42684); experiment: as above; type: binding; set-up: we tested the endogenous kinome response to SAB298; host or cells: YUSIV and YUSIK melanoma cell lysates; details: 3-point dose response
Description: as §1

[8] = tested on: phospho-SHP2 Y542; experiment: Western blot, phospho-SHP2; type: cell-based, human; details: melanoma cell lines
Description: We used standard techniques to identify changes in intracellular signaling in response to various treatments. Briefly, melanoma cells were incubated with test compounds, using DMSO as a control, collected by scraping on ice, and lysed in RIPA buffer supplemented with protease and phosphatase inhibitors (MA #78428, and #78425, respectively, Thermo Fisher Scientific, Waltham, MA). Protein concentrations were measured with the BioRad kit (Bio-Rad Laboratories, Hercules, CA), SDS sample buffer was added, extracts were heated at 95°C, sonicated and centrifuged. Cell extracts (20 µg/lane) were fractionated in 3%–8% or 4–12 % tris-acetate gel (NP0006, NuPAGE Life Technologies). […]

ABL2, sequence (P42684 whole entry): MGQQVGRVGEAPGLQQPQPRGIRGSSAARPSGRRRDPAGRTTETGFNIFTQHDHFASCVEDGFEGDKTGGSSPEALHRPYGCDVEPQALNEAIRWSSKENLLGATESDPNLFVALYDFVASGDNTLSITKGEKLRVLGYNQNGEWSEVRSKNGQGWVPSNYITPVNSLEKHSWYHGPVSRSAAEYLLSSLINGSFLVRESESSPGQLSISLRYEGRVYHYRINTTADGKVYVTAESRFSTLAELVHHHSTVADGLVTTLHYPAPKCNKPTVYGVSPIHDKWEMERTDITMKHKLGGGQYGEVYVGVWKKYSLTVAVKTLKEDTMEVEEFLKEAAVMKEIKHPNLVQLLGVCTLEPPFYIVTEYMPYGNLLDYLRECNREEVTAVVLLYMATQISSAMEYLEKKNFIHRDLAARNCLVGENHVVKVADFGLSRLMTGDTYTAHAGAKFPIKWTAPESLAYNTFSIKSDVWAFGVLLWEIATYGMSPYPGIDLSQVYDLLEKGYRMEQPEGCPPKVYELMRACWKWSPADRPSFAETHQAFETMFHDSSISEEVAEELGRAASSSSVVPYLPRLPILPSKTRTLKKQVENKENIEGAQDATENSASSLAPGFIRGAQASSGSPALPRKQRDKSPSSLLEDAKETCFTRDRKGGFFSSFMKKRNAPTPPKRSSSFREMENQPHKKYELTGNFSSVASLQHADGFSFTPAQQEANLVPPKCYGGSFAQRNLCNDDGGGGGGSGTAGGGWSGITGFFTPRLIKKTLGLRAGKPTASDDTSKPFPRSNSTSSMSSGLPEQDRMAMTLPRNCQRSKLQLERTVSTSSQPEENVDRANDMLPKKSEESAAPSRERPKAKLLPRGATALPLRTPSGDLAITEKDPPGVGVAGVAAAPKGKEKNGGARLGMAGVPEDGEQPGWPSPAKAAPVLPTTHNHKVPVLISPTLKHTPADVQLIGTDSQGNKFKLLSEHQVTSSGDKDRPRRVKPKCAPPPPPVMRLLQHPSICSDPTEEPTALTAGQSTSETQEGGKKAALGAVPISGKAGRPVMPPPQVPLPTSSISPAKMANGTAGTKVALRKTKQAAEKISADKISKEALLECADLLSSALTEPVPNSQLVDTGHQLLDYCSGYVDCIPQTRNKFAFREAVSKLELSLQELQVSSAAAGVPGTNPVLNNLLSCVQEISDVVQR
LYN, sequence (P07948 whole entry): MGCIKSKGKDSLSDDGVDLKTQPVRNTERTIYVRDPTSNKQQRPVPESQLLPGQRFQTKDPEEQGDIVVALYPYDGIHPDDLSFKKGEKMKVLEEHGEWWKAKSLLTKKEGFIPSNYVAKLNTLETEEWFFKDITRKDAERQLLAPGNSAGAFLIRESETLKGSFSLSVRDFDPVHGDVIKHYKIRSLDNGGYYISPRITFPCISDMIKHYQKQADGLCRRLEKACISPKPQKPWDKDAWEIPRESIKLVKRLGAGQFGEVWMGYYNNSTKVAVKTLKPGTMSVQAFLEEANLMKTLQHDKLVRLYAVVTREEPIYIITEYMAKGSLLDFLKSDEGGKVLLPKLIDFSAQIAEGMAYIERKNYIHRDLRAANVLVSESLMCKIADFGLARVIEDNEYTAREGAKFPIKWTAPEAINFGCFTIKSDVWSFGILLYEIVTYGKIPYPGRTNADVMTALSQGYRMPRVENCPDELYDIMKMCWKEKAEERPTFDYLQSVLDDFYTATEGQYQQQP
SRC, sequence (P12931 whole entry): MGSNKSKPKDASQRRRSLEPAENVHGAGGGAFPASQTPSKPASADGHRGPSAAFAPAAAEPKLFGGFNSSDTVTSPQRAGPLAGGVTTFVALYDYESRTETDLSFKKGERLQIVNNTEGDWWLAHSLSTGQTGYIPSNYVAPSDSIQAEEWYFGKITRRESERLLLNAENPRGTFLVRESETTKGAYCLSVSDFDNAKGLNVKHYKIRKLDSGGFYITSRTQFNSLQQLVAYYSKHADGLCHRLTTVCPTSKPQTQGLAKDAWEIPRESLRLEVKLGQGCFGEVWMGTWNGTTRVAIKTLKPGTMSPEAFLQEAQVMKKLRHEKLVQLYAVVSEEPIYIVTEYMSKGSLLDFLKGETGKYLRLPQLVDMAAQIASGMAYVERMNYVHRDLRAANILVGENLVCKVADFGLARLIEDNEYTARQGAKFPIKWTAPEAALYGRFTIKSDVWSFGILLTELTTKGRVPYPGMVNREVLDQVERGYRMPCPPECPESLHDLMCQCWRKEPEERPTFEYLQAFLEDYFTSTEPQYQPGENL
LCK, sequence (P06239 whole entry): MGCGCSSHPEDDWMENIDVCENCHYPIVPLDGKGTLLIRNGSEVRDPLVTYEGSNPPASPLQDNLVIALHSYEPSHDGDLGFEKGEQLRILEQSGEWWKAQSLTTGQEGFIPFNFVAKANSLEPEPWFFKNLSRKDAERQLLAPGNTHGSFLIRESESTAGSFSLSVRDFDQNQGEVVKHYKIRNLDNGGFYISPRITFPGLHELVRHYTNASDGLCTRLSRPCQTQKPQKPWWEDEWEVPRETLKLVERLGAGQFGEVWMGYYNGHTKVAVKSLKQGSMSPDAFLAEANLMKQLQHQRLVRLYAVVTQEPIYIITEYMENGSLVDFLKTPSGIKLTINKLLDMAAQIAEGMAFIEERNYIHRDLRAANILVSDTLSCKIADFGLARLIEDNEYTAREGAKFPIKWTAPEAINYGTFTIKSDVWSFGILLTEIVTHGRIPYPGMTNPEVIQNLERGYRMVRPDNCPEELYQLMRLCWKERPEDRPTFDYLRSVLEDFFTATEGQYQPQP

With `Nc1ncnc2c1c(-c1ccc(Oc3ccccc3)cc1)nn2C[C@@H]1SSC[C@@H]1O` [SAB298, (3S, 4S)-3-((4-amino-3-(4-phenoxyphenyl)-1H-pyrazolo[3,4-d]pyrimidin-1-yl)methyl)-1,2-dithiolan-4-ol] the “phospho-MEK and phospho-ERK (pERK T202/Y204) levels” value [1] was “increased, rather than decreased”, the IC50 [2] was 1300 to 2900 nM and the IC50 [3] was 1400 nM. The “Apoptosis (annexin staining and caspase activity)” value [4] was “induced apoptosis”, the IC50 ([5]; LYN in YUSIK lysate) was 190 nM and the IC50 ([5]; LYN in YUSIV lysate) was 60 nM. For the same compound, the “higher binding affinity in KiNativ assay compared to radioisotope filtration binding assay” value ([6]; SRC) was ~10 fold, the IC50 ([6]; SRC in YUSIV lysate, 3-point dose response) was 31 nM and the IC50 ([7]; ABL2 in YUSIK lysate) was 240 nM. For the same compound, the IC50 ([7]; ABL2 in YUSIV lysate) was 87 nM and the “phospho-SHP2 Y542 level” value [8] was “inactivated phospho-SHP2 Y542 in YUSIK, YUROB and YUSOC melanoma cell lines, but not in YUGASP”.
